Assays:
[1] = tested on: PlexA4-PlexA1 complex; assay: co-immunoprecipitation of Plexin-A4 with PlexA1 in U373MG cells; type: cell-based, human; conditions: 10^−7 M peptide 1 h
Method: (C) Rac-1 activation assay in resting condition and after Sema3A-induced Rac-1 activation in U373 MG cells. (D) Western blot analysis of phosphorylated Akt, total Akt and tubulin in U373MG cells treated with the vehicle (LDS 72 μM), Sema3A (100 ng/ml) or Sema3A + MTP-PlexA1 (10^−7 M). The lower panel is showing the quantification of the p-Akt/Akt ratio in the different conditions. (E) MTP-PlexA1 decreases VEGFR-2 phosphorylation induced by VEGF (100 ng/ml) in HUVEC cells. […]
in 20 mM sodium acetate (pH 4.5) at a flow rate of 5 μl/ min 10–7 M of MTP-PlexA1 or Vehicle (LDS, 72 µM) during until desired surface densities, measured in response 1 h. Stimulation was done with 100ng/ml Semaphorin 3A units, were reached. […] First antibodies (Rabbit anti-phospho-the elution buffer containing detergent removed non- akt, Rabbit anti-akt, Cell Signaling #4060 and #9272 biotinylated peptides rendering the chip ready for analysis respectively) and mouse anti-tubulin α (Cell Signaling with monomeric biot-MTP-PlexA1. Blank surfaces were #2144) were incubated overnight at 4°C (+ anti-NRP1, used for background corrections. Injections of 30 µl anti-PlexA4 Abcam). […] Images of the immuno-blots cells per well in a 6-well plate and serum starved overnight. were acquired and analyzed thanks to the GENE GNOME Before protein extraction, the cells were treated either with apparatus (Syngene Bio Imaging, UK).

[2] = tested on: PlexA1-NRP1 interactions; assay: proximity ligation assay on U118MG tumor sections; type: in vivo, human cells in mouse; conditions: proximity ligation assay on tumor tissue, treated mice; p = 0.0051, Mann Whitney
Method: To address the biological consequences of MTP-PlexA1-mediated inhibition of PlexA1 we used the U118MG-Luc glioma cell line genetically engineered to express the luciferase reporter gene. […] Cells were then grafted subcutaneously and tumor growth was monitored every 5 days for a total period of 20 days. […] The quantitative analysis of the cumulated luminescent signal acquired all along the protocol confirmed the strong reduction of tumor development translating into a marked 75% reduction of the averaged luminescent signal at the end point (Figure 6C). […] In order to clarify the mechanism by which MTP-PlexA1 is exerting tumor growth inhibition we collected tumors and analyzed them histologically.
(B) Representative photographs illustrating the kinetic of tumor growth over 20 days in the two experimental groups. […] (D) Waterfall plot of best response representing the percent change in tumor volume of individual treated animals (grey bars, n = 10) compared to the average tumor volume increased determined in the control group (dark bars, n = 10). […] (F) Representative microphotographs and related quantification of PH3 positive cells in tumor slices (G) Representative microphotographs and related quantification of CD31 positive regions in tumor slices (% CD31 per μm² of tumors).

With “TLPAIVGIGGGGGLLLLVIVAVLIAYKRK [MTP-PlexA1, synthetic transmembrane peptide mimicking the TMD of PlexA1]” as the sequence, how does the “change of PlexA4 co-immunoprecipitated with PlexA1, Sema3A-induced” value ([1]; Sema3A 100 ng/ml 30 min) read?
The value was −35.5%.

What about the “reduction of PlexA4 co-immunoprecipitated with PlexA1, VEGF” value ([1]; VEGF 100 ng/ml 10 min) of the same sequence?
Its value is 35.4%.

And the “change of PlexA1-NRP1 interactions in tumor sections” value [2]?
The value was −48.5%.
